One may read the IC50 as the point on the concentration scale where inhibition reaches its midpoint.

Among the data in patent US9199946B2, “Pyrimidinone carboxamide inhibitors of endothelial lipase” (BRISTOL-MYERS SQUIBB COMPANY, priority 2012, dated 2015) are IC50 values, retold here.

One assay concerns the target T1, Endothelial lipase (EL) (Homo sapiens, UniProt Q9Y5X9).
T1 construct: HT-1080 cells, which were transformed by RAGE technology (Athersys) to overexpress endogenous EL; endogenous in cells; conditioned medium used as the enzyme source
T1 sequence (Q9Y5X9 21-500): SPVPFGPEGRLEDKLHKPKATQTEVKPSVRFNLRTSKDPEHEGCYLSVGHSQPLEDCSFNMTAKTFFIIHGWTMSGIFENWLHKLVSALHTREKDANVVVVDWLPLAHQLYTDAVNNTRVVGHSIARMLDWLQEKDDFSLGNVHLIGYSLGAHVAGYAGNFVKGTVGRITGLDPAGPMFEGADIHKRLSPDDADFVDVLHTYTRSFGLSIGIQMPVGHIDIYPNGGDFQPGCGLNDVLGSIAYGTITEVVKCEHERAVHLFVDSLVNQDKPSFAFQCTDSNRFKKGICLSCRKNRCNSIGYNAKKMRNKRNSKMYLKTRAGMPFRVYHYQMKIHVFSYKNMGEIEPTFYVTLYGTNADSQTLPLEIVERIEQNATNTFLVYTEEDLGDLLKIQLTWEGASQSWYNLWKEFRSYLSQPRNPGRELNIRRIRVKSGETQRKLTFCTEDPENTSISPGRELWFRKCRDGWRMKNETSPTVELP
As to the kind of experiment: Endothelial lipase (EL) enzymatic assay with fluorescent substrate A10070 in DMPG vesicles. It counts as biochemical. Conditions: conditioned media from HT-1080 cells overexpressing endogenous EL; 20 min preincubation at 37° C.; read-out: EL IC50. The method, boiled down: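 EL activity was followed as a fluorescence rate (488/530 nm, reads every 20 s for 10 min, linear slope) on A10070 doped at 0.05 mole fraction into sonicated DMPG vesicles. Compound was first incubated 20 min at 37 °C, pH 8.0 HEPES/CaCl2 buffer, with conditioned media from EL-overexpressing HT-1080 cells.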
Consider `Nc1c(C(=O)NC2CCC(c3cccc(OCc4ccccc4)c3)C2)[nH]c(=O)[nH]c1=O` (stereo not drawn) [Example 158, 5-amino-N-(3-(3-(benzyloxy)phenyl)cyclopentyl)-2,6-dioxo-1,2,3,6-tetrahydropyrimidine-4-carboxamide], for which the IC50 was found to be 0.525 µM.
Turning to `Nc1c(C(=O)N[C@H]2CC[C@@H](NC(=O)c3nc4ccccc4s3)CC2)[nH]c(=O)[nH]c1=O` [Example 117, N-(cis-4-(5-amino-2,6-dioxo-1,2,3,6-tetrahydropyrimidine-4-carboxamido)cyclohexyl)benzo[d] thiazole-2-carboxamide], the IC50 amounted to 1.19 µM.
On to `Nc1c(C(=O)N[C@H]2CC[C@@H](C(=O)N[C@@H]3CCCc4c(OCc5ccccc5)cccc43)C2)[nH]c(=O)[nH]c1=O` [Example 136, 5-amino-N-((1S,3R)-3-((R)-5-(benzyloxy)-1,2,3,4-tetrahydronaphthalen-1-ylcarbamoyl)cyclopentyl)-2,6-dioxo-1,2,3,6-tetrahydropyrimidine-4-carboxamide], for which the IC50 was determined as 0.019 µM.

The assay is the same for the next values; noted with them: range observed in the EL assay; read-out: EL IC50 values.
For `O=C(N[C@H]1CC[C@@H](c2ccccc2)CC1)c1[nH]c(=O)[nH]c(=O)c1NCCCc1ccccc1` [Example 207, 2,6-dioxo-N-(cis-4-phenylcyclohexyl)-5-(3-phenylpropylamino)-1,2,3,6-tetrahydropyrimidine-4-carboxamide], the IC50 was at most 10 µM.
On to `Nc1c(C(=O)N[C@H]2CC[C@@H](c3ccc(Cl)c(Cl)c3)C2)[nH]c(=O)[nH]c1=O` [Example 67, 5-amino-N-((1S,3R)-3-(3,4-dichlorophenyl)cyclopentyl)-2,6-dioxo-1,2,3,6-tetrahydropyrimidine-4-carboxamide], for which the IC50 is at most 10 µM.
Still for that read-out and setting: the value for `O=C(NC1CCC(c2cccc(OCc3ccccc3)c2)C1)c1[nH]c(=O)[nH]c(=O)c1O` (stereo not drawn) [Example 282, N-(3-(3-(benzyloxy)phenyl)cyclopentyl)-5-hydroxy-2,6-dioxo-1,2,3,6-tetrahydropyrimidine-4-carboxamide] was at most 10 µM; that for `Nc1c(C(=O)N[C@@H]2CCN(c3ccccc3)C2)[nH]c(=O)[nH]c1=O` [Example 191, (R)-5-amino-2,6-dioxo-N-(1-phenylpyrrolidin-3-yl)-1,2,3,6-tetrahydropyrimidine-4-carboxamide] was at most 10 µM; that for `O=C(N[C@H]1CC[C@@H](c2ccccc2)CC1)c1[nH]c(=O)[nH]c(=O)c1NCCc1ccccc1Cl` [Example 221, 5-(2-chlorophenethylamino)-2,6-dioxo-N-(cis-4-phenylcyclohexyl)-1,2,3,6-tetrahydropyrimidine-4-carboxamide] was at most 10 µM.
For the compound `CC(C)(C)COc1ccc(C2CCC(NC(=O)c3[nH]c(=O)[nH]c(=O)c3N)C2)cc1` (stereo not drawn) [Example 143, 5-amino-N-(3-(4-(neopentyloxy)phenyl)cyclopentyl)-2,6-dioxo-1,2,3,6-tetrahydropyrimidine-4-carboxamide], the IC50 is at most 10 µM.
Same read-out and setting: the result for `Nc1c(C(=O)N[C@@H]2CCc3cc(OCc4ccccc4)ccc32)[nH]c(=O)[nH]c1=O` [Example 87, (R)-5-amino-N-(5-(benzyloxy)-2,3-dihydro-1H-inden-1-yl)-2,6-dioxo-1,2,3,6-tetrahydropyrimidine-4-carboxamide] reads at most 10 µM; that for `Nc1c(C(=O)N[C@@H]2CCc3c(Oc4ccccc4)cccc32)[nH]c(=O)[nH]c1=O` [Example 88, (R)-5-amino-2,6-dioxo-N-(4-phenoxy-2,3-dihydro-1H-inden-1-yl)-1,2,3,6-tetrahydropyrimidine-4-carboxamide], at most 10 µM.
As for `COC(=O)C1CCCCC1NC(=O)c1[nH]c(=O)[nH]c(=O)c1N` (stereo not drawn) [Example 56, methyl 2-(5-amino-2,6-dioxo-1,2,3,6-tetrahydropyrimidine-4-carboxamido) cyclohexanecarboxylate], the IC50 is at most 10 µM.
Consider `O=C(N[C@H]1CC[C@@H](c2ccccc2)CC1)c1[nH]c(=O)[nH]c(=O)c1NCc1ccncc1` [Example 227, 2,6-dioxo-N-(cis-4-phenylcyclohexyl)-5-(pyridin-4-ylmethylamino)-1,2,3,6-tetrahydropyrimidine-4-carboxamide], for which the IC50 is at most 10 µM.
The same measure, in the same setting: the value for `CC(C)Oc1ccc(C2CCC(NC(=O)c3[nH]c(=O)[nH]c(=O)c3O)C2)cc1` (stereo not drawn) [Example 294, 5-hydroxy-N-(3-(4-isopropoxyphenyl)cyclopentyl)-2,6-dioxo-1,2,3,6-tetrahydropyrimidine-4 carboxamide] was at most 10 µM; that for `COc1cccc2c1C(NC(=O)c1[nH]c(=O)[nH]c(=O)c1N)CCC2` (single isomer, unassigned; enantiomer a) [Example 201, 5-amino-N-(8-methoxy-1,2,3,4-tetrahydronaphthalen-1-yl)-2,6-dioxo 1,2,3,6-tetrahydropyrimidine-4-carboxamide (Enantiomer A)] was at most 10 µM; that for `Nc1c(C(=O)N[C@H]2CC[C@@H](NC(=O)c3nc4ccccc4s3)CC2)[nH]c(=O)[nH]c1=O` [Example 117, N-(cis-4-(5-amino-2,6-dioxo-1,2,3,6-tetrahydropyrimidine-4-carboxamido)cyclohexyl)benzo[d] thiazole-2-carboxamide] was at most 10 µM.
Take `CC(C)COc1ccc(C2CCC(NC(=O)c3[nH]c(=O)[nH]c(=O)c3N)C2)cc1` (stereo not drawn) [Example 145, 5-amino-N-(3-(4-isobutoxyphenyl)cyclopentyl)-2,6-dioxo-1,2,3,6-tetrahydropyrimidine-4-carboxamide]: the IC50 was at most 10 µM.
On the same count and under the same terms, the value for `Nc1c(C(=O)N[C@@H]2CCCc3ccc(F)cc32)[nH]c(=O)[nH]c1=O` [Example 40, (R)-5-amino-N-(7-fluoro-1,2,3,4-tetrahydronaphthalen-1-yl)-2,6-dioxo-1,2,3,6-tetrahydropyrimidine-4-carboxamide] was at most 10 µM; that for `Nc1c(C(=O)N[C@H]2CC[C@@H](c3ccc(-c4cnn(Cc5ccccc5)c4)cc3)C2)[nH]c(=O)[nH]c1=O` (stereo in doubt) [Example 179, 5-amino-N-((1S,3R)-3-(4-(1-benzyl-1H-pyrazol-4-yl)phenyl)cyclopentyl)-2,6-dioxo-1,2,3,6-tetrahydropyrimidine-4-carboxamide] was at most 10 µM; that for `Nc1c(C(=O)N[C@H]2CCc3c(Br)cccc32)[nH]c(=O)[nH]c1=O` [Example 60, (S)-5-amino-N-(4-bromo-2,3-dihydro-1H-inden-1-yl)-2,6-dioxo-1,2,3,6-tetrahydropyrimidine-4-carboxamide] was at most 10 µM.
`Nc1c(C(=O)N[C@H]2CC[C@@H](NC(=O)Nc3ccccc3)CC2)[nH]c(=O)[nH]c1=O` [Example 118, 5-amino-2,6-dioxo-N-(cis-4-(3-phenylureido)cyclohexyl)-1,2,3,6-tetrahydropyrimidine-4-carboxamide]: the IC50 is at most 10 µM.
The same measure, in the same setting: the value for `O=C(N[C@H]1CCCc2ccccc21)c1[nH]c(=O)[nH]c(=O)c1O` [Example 245, (S)-5-hydroxy-2,6-dioxo-N-(1,2,3,4-tetrahydronaphthalen-1-yl)-1,2,3,6-tetrahydropyrimidine-4-carboxamide] was at most 10 µM; that for `Nc1c(C(=O)N[C@H]2CC[C@@H](C(=O)N[C@@H]3CCCc4c(OCc5ccccc5)cccc43)C2)[nH]c(=O)[nH]c1=O` [Example 136, 5-amino-N-((1S,3R)-3-((R)-5-(benzyloxy)-1,2,3,4-tetrahydronaphthalen-1-ylcarbamoyl)cyclopentyl)-2,6-dioxo-1,2,3,6-tetrahydropyrimidine-4-carboxamide] was at most 10 µM.
Turning to `Nc1c(C(=O)N[C@H]2CC[C@@H](c3ccc(-c4ccccc4CO)cc3)C2)[nH]c(=O)[nH]c1=O` [Example 174, 5-amino-N-((1S,3R)-3-(2′-(hydroxymethyl)biphenyl-4-yl)cyclopentyl)-2,6-dioxo-1,2,3,6-tetrahydropyrimidine-4-carboxamide], the IC50 is at most 10 µM.
For the compound `COC(=O)[C@@H]1C[C@H](NC(=O)c2[nH]c(=O)[nH]c(=O)c2N)c2ccccc21` [Example 12, (1R,3S)-methyl 3-(5-amino-2,6-dioxo-1,2,3,6-tetrahydropyrimidine-4-carboxamido)-2,3-dihydro-1H-indene-1-carboxylate], the IC50 was at most 10 µM.
Still for that read-out and setting: the value for `Nc1c(C(=O)N[C@@H]2CC(c3ccccc3)c3ccccc32)[nH]c(=O)[nH]c1=O` (stereo in doubt) [Example 29, 5-amino-2,6-dioxo-N-((1R,3S)-3-phenyl-2,3-dihydro-1H-inden-1-yl)-1,2,3,6-tetrahydropyrimidine-4-carboxamide] was at most 10 µM.
The same measure, in the same setting: the value for `O=C(N[C@H]1CC[C@@H](c2ccccc2)CC1)c1[nH]c(=O)n(CCC(F)(F)F)c(=O)c1O` [Example 252, 5-hydroxy-2,6-dioxo-N-((1s,4s)-4-phenylcyclohexyl)-1-(3,3,3-trifluoropropyl)-1,2,3,6-tetrahydropyrimidine-4-carboxamide] was at most 10 µM; that for `COC(=O)[C@H]1CC[C@@H](NC(=O)c2[nH]c(=O)[nH]c(=O)c2N)CC1` [Example 43, cis-methyl 4-(5-amino-2,6-dioxo-1,2,3,6-tetrahydropyrimidine-4-carboxamido) cyclohexanecarboxylate] was at most 10 µM.
Regarding `Nc1c(C(=O)N[C@@H]2CCCc3c(NCc4ccccc4)cccc32)[nH]c(=O)[nH]c1=O` [Example 123, (R)-5-amino-N-(5-(benzylamino)-1,2,3,4-tetrahydronaphthalen-1-yl)-2,6-dioxo-1,2,3,6-tetrahydropyrimidine-4-carboxamide], the IC50 was at most 10 µM.
`C[C@H](Nc1c(C(=O)N[C@H]2CC[C@@H](c3ccccc3)CC2)[nH]c(=O)[nH]c1=O)C1CCCCC1` [Example 232, 5-((S)-1-cyclohexylethylamino)-2,6-dioxo-N-(cis-phenylcyclohexyl)-1,2,3,6-tetrahydropyrimidine-4-carboxamide]: the IC50 is at most 10 µM.
